These results are taken from patent US11213499B1, “Use of 3,3′-diselenodipropionic acid (DSePA) as an anticancer agent” (Secretary, Department of Atomic Energy, priority 2020, dated 2022).

Like-named read-outs stand apart in the source and are kept apart here.

Data set [1] concerns H460 (Human non-small cell lung adenocarcinoma). Kind of data set: SRB/MTT anti-proliferative assay, H460. The class given is cell-based. The following applies: 48 hours treatment, read-out: GI50 (Concentration of drug causing 50% inhibition of cell growth). The procedure: (§1) The anticancer effect of DSePA was evaluated using a panel of twenty-five human cancer cell lines of different tissue origins. Cells were treated with the increasing concentrations (0.1-100 μM) of DSePA for 48 h and viability was monitored by (Sulforhodamine B) SRB assay or MTT assay.
(§2) Cell culture and DSePA synthesis—DSePA was synthesized and characterized as described in our previous reports. Cell lines were cultured in growth medium (DMEM/RPMI) supplemented with 10% FBS, 100 U/ml penicillin and 100 μg/ml streptomycin at 37° C. in a humidified 5% CO2 environment. The stock solution of DSePA was prepared fresh in cell culture medium and diluted with the same to achieve the desired concentrations.
(§3) SRB/MTT Assay—To evaluate the anti-proliferative effect of DSePA, Cells (˜5×10^3) suspended in 100 μl of complete culture medium were seeded in each well of 96 well plates. The cells were allowed to attach and grow for 24 h, treated with desired concentrations of DSePA dissolved in culture medium for 48 h and then processed for SRB/MTT assay as described in literature. The percentage (%) cytotoxicity was calculated from the decrease in absorbance as compared to that of control group.
In general terms: Tetrazolium assays rely on reduction of a dye to a coloured formazan, in cell work by metabolically active cells.

Data set [2] has as its system WI-38 (Human normal lung fibroblast). Description: SRB/MTT assay, normal WI-38 cells. The class given is cell-based. The procedure: as §1, §2, §3
For data set [3] the following is noted: mice; cited from earlier work.

Turning to `O=C(O)CC[Se][Se]CCC(=O)O` [DSePA, 3,3′-diselenodipropionic acid], the GI50 in data set [1] was 8 µM; in data set [1] (Homo sapiens, NCI-H460, 48 h), ≤ 10 µM; in data set [2] (Homo sapiens, WI-38 normal cells, 48 hours treatment, SRB/MTT assay, read-out: GI50 (Concentration of drug causing 50% inhibition of cell growth)) it was > 100 µM. In addition, in data set [2] (WI-38, 0.1-100 μM, 48 h), the “toxicity in normal cell types” value was “did not show toxicity”. The “estimated median oral Lethal dose (LD50) cut-off” value in data set [3] is listed as 200 mg/kg.
